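In this assay, cells in 96-well plates receive the compound at five concentrations for 48 hours. Endpoints are linearly interpolated between the surrounding concentrations. At the GI50, growth is halved. TGI denotes the concentration required for complete inhibition of growth.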 A value given as a limit tells only on which side of the number the result lay.

Holding throughout (assay): DTP human tumour cell line panel, 48 h
Assay [1] concerns NCI-H23 lung.
Assay [2] has as its system KM12 colon.
Assay [3] deals with RXF 393 renal.
In assay [4] the test system is SK-MEL-28 melanoma.
Assay [5] has as its system ACHN renal.
The test system of assay [6] is CCRF-CEM leukemia.
For assay [7], the system named is SN12C renal.
In assay [8] the test system is LOX IMVI melanoma.
In assay [9] the test system is COLO 205 colon.
Assay [10] deals with A498 renal.

The term TGI denotes the concentration at which net growth stops. A low value points to greater sensitivity of the cells. Turning to `CCc1cccc(C)c1NC(=O)CCc1nc(=S)[nH][nH]1`, the total growth inhibition concentration (TGI) in assay [1], in [2], in [3], in assay [4], in assay [5] and in assay [6] was greater than 100 µM throughout. Also, the TGI in assay [7] and in assay [8] was greater than 100 µM each time.
On to `COc1nc2c(c(O)c(C)c(=O)n2OC2OCC(OC(C)=O)C(OC(C)=O)C2OC(C)=O)c(=O)n1C` (stereo not given), for which the total growth inhibition concentration (TGI) in assay [1], in assay [2], in [3], in assay [4], in [5] and in assay [6] was greater than 100 µM throughout. Also, the TGI in assay [9], in assay [7] and in assay [8] was greater than 100 µM each time.
As a reminder, the GI50 is the concentration at which growth is held to half of that of the control. For `COc1ccc(OC)c(NCC(=O)n2nc(/C=C\c3ccc(O)c(OC)c3)cc2/C=C\c2ccc(O)c(OC)c2)c1`, the GI50 in assay [1] is 2.62 µM; in assay [2] it was 1.81 µM; in assay [3] it was 1.51 µM; in [4], 2.66 µM; in [6] it was 0.474 µM; in assay [9], 2.11 µM. Further, the figures for the GI50 in assay [7] and in assay [10] were 2.52 µM and 1.6 µM, respectively. Further, the TGI is 31.7 µM in [1]; 4.92 µM in assay [2]; 3.19 µM in assay [3]; 12.3 µM in assay [4]; greater than 100 µM in assay [6]; 4.27 µM in [9]. Also, the TGI was greater than 100 µM in [7] and 5.7 µM in assay [10].
In the case of `O=C(Nc1ccc(N=C=S)cc1Cl)c1cc(Br)cc(Br)c1O`, the TGI in assay [1] was 55.2 µM; in assay [2] it was 55.3 µM; in assay [3] it was greater than 100 µM; in assay [4], greater than 100 µM; in assay [5], 83.8 µM; in assay [9], greater than 100 µM. This compound also showed a TGI in [7] of 24.1 µM.
Consider `N#Cc1nc2c(S(=O)(=O)c3ccc(Cl)cc3)c(N)n(Nc3cccc(Cl)c3)c2nc1C#N`, for which the GI50 in assay [1] is 0.0324 µM; in assay [4] it was 0.00349 µM; in assay [5], 0.0277 µM; in [6], 0.0101 µM; in assay [7] it was 0.033 µM; in assay [8], 0.0301 µM. In [4], this compound had a TGI of 0.011 µM.
In the case of `CCCCCOc1ccc(/C=N/Nc2cc(C)nc3ccc(Cl)cc23)cc1`, the GI50 was 1.78 µM in assay [1]; 1.79 µM in [2]; 1.63 µM in assay [3]; 1.69 µM in assay [4]; 1.75 µM in [5]; 1.89 µM in [9]. For the same compound, the GI50 in assay [7] is 1.71 µM; in assay [8], 1.69 µM; in [10] it was 1.19 µM. Further, the TGI in assay [1] was 3.47 µM; in assay [2], 3.41 µM; in assay [3] it was 3.08 µM; in assay [4] it was 3.09 µM; in assay [5], 3.13 µM; in assay [9] it was 3.61 µM. Moreover, the TGI in assay [7] was 3.22 µM; in assay [8] it was 3.15 µM; in assay [10] it was 2.47 µM.
As for `COC(=O)CCC(NC(=S)N/N=C/c1cccs1)C(=O)OC` (stereo not given), the TGI in assay [1], in assay [2], in assay [3], in assay [4], in [5] and in [9] was greater than 100 µM throughout. Besides, the TGI in assay [7], in assay [8] and in assay [10] was greater than 100 µM each time.
Consider `O=C(NC1C(=O)NNC1c1cccc([N+](=O)[O-])c1)c1ccccc1` (stereo not given), for which the TGI in [1], in assay [2], in assay [3], in assay [4], in assay [5] and in [6] was greater than 100 µM in each case. In addition, the TGI in assay [9], in assay [7] and in [8] was greater than 100 µM throughout.
`O=C(NCCNCCO)c1ccc2c(c1)oc1cc3ccccc3c(=O)n12`: the GI50 in assay [1] is 22.5 µM; in [2], 9.32 µM; in [3] it was 14.2 µM; in assay [4] it was greater than 50 µM; in [5] it was 19 µM; in assay [9], 18.9 µM. For the same compound, the GI50 was 29.1 µM in assay [7] and 17.4 µM in assay [8]. Besides, the TGI in assay [1] was greater than 50 µM; in assay [2], greater than 50 µM; in assay [3] it was greater than 50 µM; in assay [4], greater than 50 µM; in [5], greater than 50 µM; in assay [9], 47.3 µM. Moreover, the TGI in assay [7] is greater than 50 µM; in assay [8] it was 40.6 µM.
On to `CCN(CC)Cc1cc(Nc2nc(NC3CCC(N(C)C)CC3)c3ccccc3n2)ccc1OC` (stereo not given), for which the GI50 in assay [1] is 6.9 µM; in assay [2], 3.35 µM; in assay [3] it was 0.578 µM; in assay [4], 2.41 µM; in [5] it was 11 µM; in assay [6], 2.5 µM. The GI50 in assay [9] was 1.5 µM; in assay [7] it was 11.3 µM; in assay [10], 12.5 µM. Also, the TGI stood at 21.9 µM in assay [1]; 13.2 µM in assay [2]; 8.44 µM in [3]; 5.17 µM in assay [4]; 24.8 µM in assay [5]; 16.8 µM in [6]. Further, the TGI in assay [9] stood at 2.87 µM; in assay [7], 24.5 µM; in assay [10], 25.2 µM.
With `O=[N+]([O-])c1ccc(Cl)c2c([N+](=O)[O-])cccc12`, the TGI in [1], in [2], in [3], in assay [4], in assay [6] and in assay [9] was greater than 10 µM in each case. Also, the TGI in assay [7] and in assay [8] was greater than 10 µM in each case.

Source of the values: PubChem BioAssay (NCI).
